Source: US20110191897A1, “Plants Tolerant to HPPD Inhibitor Herbicides” (Bayer CropScience AG, priority 2009, published 2011)
Where two headings read alike, the source gives them in different places.

What was measured:
[1] = test system: leaf disks of tobacco plants containing HPPD SEQ ID No. 11 (Arabidopsis thaliana); test: Leaf disk regeneration on media with HPPD inhibitors; type: cell-based, Nicotiana tabacum; conditions: 10^−6 M, 6 weeks
Protocol: (§1) At the end of the experiments the level of regeneration was evaluated as followed:
(§2) “−” means that the leaf disks looked the same as leaf disk from wild type tobacco plants on media supplemented with the inhibitor mentioned above. “++++” means that the leaf disks looked like the leaf disks from the wild type tobacco plants on media without inhibitor. “+”, “++”, and “+++” indicate regenerated leaf disks were heavily (+), medium (++) and less (+++) affected by the presence of the inhibitors.

[2] = biological target: T1, Arabidopsis thaliana HPPD (SEQ ID No. 10) (Arabidopsis thaliana, UniProt P93836); test: Spectrophotometric HPPD activity assay in presence of HPPD inhibitors; type: biochemical; conditions: for inhibition at 5 µM: read-out: percentage of inhibition
T1 construct: made in house; host or cells: E. coli K-12 BL21 (pQE30-AtHPPD)
T1 sequence (P93836 with tags, fused parts or gaps): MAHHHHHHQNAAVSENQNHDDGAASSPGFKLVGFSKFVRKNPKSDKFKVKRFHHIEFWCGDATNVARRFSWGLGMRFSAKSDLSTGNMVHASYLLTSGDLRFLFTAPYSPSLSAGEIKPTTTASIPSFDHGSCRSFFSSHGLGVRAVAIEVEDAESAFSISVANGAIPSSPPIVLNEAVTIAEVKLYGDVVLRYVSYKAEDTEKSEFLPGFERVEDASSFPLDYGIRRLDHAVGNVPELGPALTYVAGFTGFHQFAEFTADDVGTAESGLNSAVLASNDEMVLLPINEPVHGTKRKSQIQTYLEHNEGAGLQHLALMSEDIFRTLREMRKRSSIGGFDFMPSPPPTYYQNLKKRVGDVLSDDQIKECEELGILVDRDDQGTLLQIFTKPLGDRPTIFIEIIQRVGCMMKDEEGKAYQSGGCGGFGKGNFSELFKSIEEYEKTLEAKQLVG

[3] = test system: leaf disks of tobacco plants containing HPPD SEQ ID No. 7 (Blepharisma japonicum); test: Leaf disk regeneration on media with HPPD inhibitors; type: cell-based, Nicotiana tabacum; design: key to the marks not given beside the values; conditions: 10^−6 M, 6 weeks
Protocol: as §1, §2

[4] = test system: tobacco plants with FMP37t-h, PAT and 2mEPSPS (pFCO112); test: Glasshouse trial of tobacco with three tolerance genes; type: in vivo, Nicotiana tobacum; conditions: 9 DAT
Protocol: A binary vector for tobacco transformation is, for example, constructed with the CaMV35 promoter driving the expression of the gene FMP37t-h (SEQ ID No. 15), with a codon usage optimized for the expression in dicotyledoneous plants and at its 5′ extremity was added a sequence coding for an OTP, and further upstream a sequence TEV (Tobacco etch virus) to improve the stability of the mRNA in plants followed by the CaMV35S terminator. The nucleotide sequence of the gene FMP37t-h is given in SEQ ID No. 15. Additionally, the transformation vector also contains a PAT gene cassette in which the gene is driven by a CaVM35S promoter and followed by a CaMV35S terminator for glufosinate based selection during the transformation process and a 2mEPSPS gene cassette in which the gene is driven by an histone promoter from Arabidopsis to confer tolerance to the herbicide glyphosate to the transformed plants (see FIG. 3 H). The binary vector was called pFCO112. The above vector was used to transform leaf disks obtained from Nicotiana tobacum plants, according to Example 3.
Transgenic tobacco plants were transferred to the greenhouse and treated with glyphosate at a rate of 1121 g Al/ha. Seeds were produced from such tolerant tobacco plants and harvested. These seeds were put on soil to germinate in the glasshouse. Three to four weeks later, 50 plantlets per event were transferred to single pots. Two weeks later, plants of a size 4-6 cm were sprayed either with:
[…] […] Non-transgenic tobacco plants were completely killed by treatment using one or more of the above herbicides.

[5] = biological target: T2, Blepharisma japonicum HPPD (SEQ ID No. 5) (Blepharisma japonicum, UniProt A8R3H6); test: HPLC assay of HPPD in vitro kinetic properties; type: biochemical
Protocol: Km, Vmax, and kcat values for different HPPD enzyme preparations and Ki, K1=Kon, and K−1=Koff for different HPPD inhibitors were determined using a HPLC assay for measurements of HPPD activity. […] All assays were started by the addition of HPPD enzyme to the assay mixture and stopped at a series of times between 0 and 240 s by addition of 200 μl of the reaction mixture to reaction assay tubes containing 20 μl 10% perchloric acid. Precipitated protein was pelleted by a 5 minute centrifugation at 10,000 g. […] A standard set of concentrations of HGA were used to provide a standard curve in order to calibrate the 292 nm absorbance of the HGA peak versus HGA concentration.
For Km and Vmax value determinations the initial rates of the HPPD reaction at different substrate concentrations were determined from plots of HGA formed versus time and fitted to the Michaelis-Menten equation for unireactant enzymes using the ID Business Solutions Ltd. (www.idbs.com) XLfit software suite. For the determination of Ki, K1=Kon, and Ki=Koff values the time-courses of the HPPD reaction at different inhibitor concentrations were fitted to the equations for Mechanism A, competitive inhibition, for tight-binding inhibitors (Cha, S. (1975) Tight-binding inhibitors—I. Kinetic behaviour. Biochemical Pharmacology 24, 2177-2185) using the ID Business Solutions Ltd. XLfit software suite

[6] = biological target: T1, Arabidopsis thaliana HPPD (SEQ ID No. 10); test: HPLC assay of HPPD in vitro kinetic properties; type: biochemical; conditions: substrate HPP 10-400 μM, pH 7.8
Protocol: Km, Vmax, and kcat values for different HPPD enzyme preparations and Ki, K1=Kon, and K−1=Koff for different HPPD inhibitors were determined using a HPLC assay for measurements of HPPD activity. […] All assays were started by the addition of HPPD enzyme to the assay mixture and stopped at a series of times between 0 and 240 s by addition of 200 μl of the reaction mixture to reaction assay tubes containing 20 μl 10% perchloric acid. Precipitated protein was pelleted by a 5 minute centrifugation at 10,000 g.
For Km and Vmax value determinations the initial rates of the HPPD reaction at different substrate concentrations were determined from plots of HGA formed versus time and fitted to the Michaelis-Menten equation for unireactant enzymes using the ID Business Solutions Ltd. (www.idbs.com) XLfit software suite.

[7] = biological target: T2, Blepharisma japonicum HPPD (SEQ ID No. 5); test: biochemical; conditions: for inhibition at 5 µM: read-out: percentage of inhibition
wild type tobacco plants = test: Glasshouse response to bicyclopyrone, injury classes; type: in vivo, Nicotiana tabacum; conditions: WT, 100 g Al/ha, 7 DAT
From the text: (§3) Seeds of wild type tobacco plants and T1 tobacco plants carrying the gene from Blepharisma japonicum FMP37e coding for HPPD were sown on MS media (Murashige and Skoog […]) supplemented with […] kanamycin. After 4 weeks, rooted green plantlets were transferred to soil and grown for 3 weeks in the glasshouse as described above then sprayed with a mixture containing bicyclopyrone (100 g Al/ha), ammonium sulfate and methyl ester raps oil. The plants were classified in two categories based on the phenotype developed in response to the herbicide seven days after the treatment. […] In this case, only plants containing at least one T-DNA were exposed to the herbicidal treatment.

[8] = test system: T1 tobacco plants carrying FMP37e (kanamycin selected); test: as above; type: in vivo, Nicotiana tabacum; conditions: 7 DAT
From the text: as §3

[9] = 5.0 × 10^−6M inhibitor (Table 4)
[10] = substrate HPP 10-400 μM, pH 7.8

T2 sequence (A8R3H6 entry or part of it): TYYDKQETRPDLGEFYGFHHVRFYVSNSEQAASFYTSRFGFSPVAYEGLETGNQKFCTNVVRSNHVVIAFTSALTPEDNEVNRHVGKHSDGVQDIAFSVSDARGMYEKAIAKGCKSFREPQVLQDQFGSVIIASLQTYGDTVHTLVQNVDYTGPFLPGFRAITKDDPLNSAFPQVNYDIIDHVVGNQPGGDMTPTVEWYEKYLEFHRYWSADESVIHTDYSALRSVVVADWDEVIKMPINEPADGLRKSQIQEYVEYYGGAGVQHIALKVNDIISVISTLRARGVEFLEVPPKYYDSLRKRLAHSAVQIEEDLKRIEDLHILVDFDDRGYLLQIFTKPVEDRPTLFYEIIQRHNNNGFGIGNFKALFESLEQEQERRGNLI

## CS(=O)(=O)c1ccc(C(=O)C2C(=O)CCCC2=O)c([N+](=O)[O-])c1 [Mesotrione, 2-[4-(methylsulfonyl)-2-nitrobenzoyl]-1,3-cyclohexanedione]
[1]
  level of regeneration of leaf disks: −
[2]
  IC50: < 2.51 µM
[2]; [9]
  inhibition at 5 µM: 86%
[3]
  level of regeneration of leaf disks: ++++

## O=C(O)CNCP(=O)(O)O [Glyphosate]
[4]; line 634, 1121 g AI/ha
  number of plants in Class I (no injuries): 10
  number of plants in Class II (injury: 10-40%): 0
  number of plants in Class III (injury: 41-100%): 0
[4]; line 713, 1121 g AI/ha
  number of plants in Class I (no injuries): 10
  number of plants in Class II (injury: 10-40%): 0
  number of plants in Class III (injury: 41-100%): 0

## CP(=O)(O)CCC(N)C(=O)O (stereo not drawn) [Glufosinate-ammonium]
[4]; line 634, 1000 g AI/ha
  number of plants in Class I (no injuries): 10
  number of plants in Class II (injury: 10-40%): 0
  number of plants in Class III (injury: 41-100%): 0
[4]; line 713, 1000 g AI/ha
  number of plants in Class I (no injuries): 10
  number of plants in Class II (injury: 10-40%): 0
  number of plants in Class III (injury: 41-100%): 0

## O=C(O)C(=O)Cc1ccc(O)cc1 [HPP, para-hydroxyphenylpyruvate]
[5]; [10]
  Km: 83 µM
  Vmax: 0.1 µM
[6]
  Km: 6.3 µM
  Vmax: 1.2 µM

## COCCOCc1nc(C(F)(F)F)ccc1C(=O)C1=C(O)C2CCC(C2)C1=O (stereo not drawn) [Bicyclopyrone, 4-hydroxy-3-[[2-[(2-methoxyethoxy)methyl]-6-(trifluoromethyl)-3-pyridinyl]carbonyl]bicyclo[3.2.1]oct-3-en-2-one]
[1]
  level of regeneration of leaf disks: −
[7]; read-out: pI50 (converted)
  IC50: 200 µM
[7]
  inhibition at 5 µM: 0%
Wild type tobacco plants
  number of plants in Class I (injury: 0-30%): 0
  number of plants in Class II (injury: 31-100%): 12
[8]; line 113, 100 g Al/ha
  % of tolerant plant: 56%
  number of plants in Class I (injury: 0-30%): 60
  number of plants in Class II (injury: 31-100%): 78
[8]; line 207, 100 g Al/ha
  % of tolerant plant: >60%
  number of plants in Class I (injury: 0-30%): 65
  number of plants in Class II (injury: 31-100%): >100
[8]; line 208, 100 g Al/ha
  % of tolerant plant: 67%
  number of plants in Class I (injury: 0-30%): 44
  number of plants in Class II (injury: 31-100%): 90
[2]
  IC50: 6.31 µM
  inhibition at 5 µM: 29%
[3]
  level of regeneration of leaf disks: ++++

## Cc1ccc(S(=O)(=O)Oc2c(C(=O)c3ccc(Cl)cc3Cl)c(C)nn2C)cc1 [Pyrazolate]
[7]
  IC50: 20 µM
  inhibition at 5 µM: 0%
[2]; [9]
  inhibition at 5 µM: 61%
[2]; read-out: pI50 (converted)
  IC50: 3.98 µM

## Cc1nn(C)c(O)c1C(=O)c1ccc(C(F)(F)F)cc1S(C)(=O)=O [Pyrasulfotole]
[7]; 2 mM HPP, 3 minutes incubation
  pI50: 4.4
[7]; [9]
  percentage of inhibition: 0%
[2]; 2 mM HPP, 3 minutes incubation
  pI50: 5.4
[2]; [9]
  percentage of inhibition: 69%

## Cc1ccc(C(=O)COc2c(C(=O)c3ccc(Cl)c(C)c3Cl)c(C)nn2C)cc1 [Benzofenap]
[7]; read-out: pI50 (converted)
  IC50: 3.16 µM
[7]
  inhibition at 5 µM: 85%
[2]; read-out: pI50 (converted)
  IC50: < 2.51 µM
[2]
  inhibition at 5 µM: 90%

## CS(=O)(=O)c1ccc(C(=O)C2C(=O)CCCC2=O)c(Cl)c1 [Sulcotrione, 2-[2-chloro-4-(methylsulfonyl)benzoyl]-1,3-cyclohexanedione]
[2]
  IC50: < 2.51 µM
  inhibition at 5 µM: 74%

## CS(=O)(=O)c1cc(C(F)(F)F)ccc1C(=O)C(C#N)C(=O)C1CC1 (stereo not drawn) [Diketonitrile, 2-cyano-3-cyclopropyl-1-(2-methylsulphonyl-4-trifluoromethylphenyl)-propane-1,3-dione]
[5]
  Ki: 6.6 µM
[2]; [9]
  inhibition at 5 µM: 87%

## CS(=O)(=O)c1ccc(C(=O)C2C(=O)CCCC2=O)c(Cl)c1COCC1CCCO1 (stereo not drawn) [Tefuryltrione, 2-[2-chloro-4-(methylsulfonyl)-3-[[(tetrahydro-2-furanyl)methoxy]methyl]benzoyl]-1,3-cyclohexanedione]
[2]; [9]
  inhibition at 5 µM: 100%
